US7608716B2, “Pyrazolonaphthyridine derivative” (Aska Pharmaceutical Co., Ltd., priority 2002, dated 2009)

What was measured:
[1] = tested on: actively sensitized guinea pigs; assay: Inhibition of antigen-induced immediate asthmatic response (airway resistance, Konzett-Rossler); type: in vivo, Hartley guinea pigs; conditions: Cavia porcellus, oral, 60 minutes prior to antigen-challenge, reduction of increase in airway resistance, read-out: Inhibition of Asthmatic response ED50: mg/kg orally
Procedure: Male Hartley outbred guinea pigs were sensitized by administering intraperitoneally physiological saline (0.5 ml) containing ovalbumin (1 mg, antigen) and 5×10^9 inactivated Bordetella pertussis dead cells (adjuvant). Eleven to thirteen days after the first sensitization, 0.05 ml of an ovalbumin solution (1 mg/ml) (ovalbumin is dissolved in physiological saline) was administered to the lateroabdominal region of each guinea pig intracutaneously. An establishment of sensitization was checked relying on cutaneous reaction. Only guinea pigs wherein significant reddening responses occurred 5 to 10 minutes later were employed in the next measurement test for airway resistance.
The guinea pigs (3 animals per group) actively sensitized in the above step (1) were employed to measure for their airway pressure according to Konzett-Rossler method (Arch. Exp. Path. Pharmakol., 195, 71 (1940)).
Thirteen days after the final sensitization, guinea pigs fasted overnight, and were on the next day anesthetized with a pentobarbital solution (30 mg/1.2 ml/kg, dissolved in physiological saline, intraperitoneal administration). After the guinea pigs were fixed in a supine position, their trachea was incised followed by insertion with one port of a 4-port cannula. Among the remaining 3 ports, 2 ports were connected to an artificial respirator (Model 683, Harvard). The animals were ventilated with 10 ml/kg of air per ventilation at a rate of 60 beats/min via the artificial respirator from the cannula. One port remainder was connected to a respiratory amplifier (AR-601G, Nihon Kohden, Japan) via an airflow resistance tube (TV-241T, Nihon Kohden, Japan) and a differential pressure transducer (TP-602T, Nihon Kohden, Japan) connected with a control box (RY-111S, Nihon Kohden, Japan). From a catheter inserted into a left carotid artery, blood pressures were monitored with a blood pressure measurement unit (AP641G, NEC Corp., Japan) via a blood pressure transducer (TP-300T, Nihon Kohden, Japan), and heart rates were recorded on a thermal recorder (WT-685G, Nihon Kohden, Japan), relying on blood pressure pulse waves after being led to a cardiograph unit (AT601G, Nihon Kohden, Japan).
After airway pressure became stable, an ovalbumin solution (1 mg/ml, dissolved in physiological saline) was administered at a dose of 1 ml/kg via a tube with which the right jugular vein of guinea pigs was cannulated.
Each test compound was suspended in 0.5% CMC-Na solution and administered orally with an oral sound at a dose of 0.03 to 20 mg/2 ml/kg 60 minutes prior to the antigen-challenge. Control groups received only 0.5% CMC-Na solution in an equivalent amount. The pentobarbital-anesthetization and tracheal incision were conducted 30 minutes prior to the antigen-challenge.
Each percent reduction of increase in airway resistance (each test compound-administered group versus control group) was calculated according to the equation given below. ED50 was obtained by Probit method.

[2] = tested on: T1, PDE IV isozymes separated from U937 culture cells; assay: PDE IV inhibition ([3H]-cAMP hydrolysis); type: biochemical; conditions: cAMP 1 μM substrate, 30° C., 20 minutes
T1 construct: PDE IV isozymes as used herein were separated from U937 culture cells by using an anion exchange chromatography
Procedure: PDE IV isozymes as used herein were separated from U937 culture cells by using an anion exchange chromatography. Type IV PDE isozyme was admixed with ethylene glycol (EG) to adjust the final EG concentration to 30%, then stored at −20° C. and diluted when used. The enzymatic activity for PDE IV was measured using cAMP as a substrate.
Each test compound was dissolved in DMSO to adjust the final concentration to 1% (2.5 μl/tube).
Incubation Buffer Solution (pH7.5):
• Tris-HCl (50 mM), magnesium chloride (6 mM), dithiothreitol (2.5 mM), 5-nucleotidase (4 μg/ml), bovine serum albumin (0.23 mg/ml), and cAMP (1 μM).
A mixture of the aforementioned test compound solution and the buffer solution was incubated at 30° C. for 20 minutes. The reaction was quenched by admixing with 1 ml of anion exchange resin slurry (AG1-X8, 200-400 meshes, chloride form; Bio-Rad) to absorb unreacted substrates. After the reaction stopped, the mixture was centrifuged at 800×g for 10 minutes, and the resulting supernatant was collected with vials in 250 μl aliquots. To each vial was added 5 ml of ACS-II (scintillator, Amersham). The radioactivity was measured with a liquid scintillator counter for [^3H]-adenosine and set as the PDE IV activity.

TNF-α production = assay: Inhibition of TNF-α production in galactosamine- and LPS-stimulation; type: in vivo; conditions: Mus musculus; C3H/HeN mice, oral, 1 hour before galactosamine/LPS i.v.; serum TNF-α by ELISA 1 hour later; read-out: Inhibition of TNF-α production ED50: mg/kg orally
Procedure: A suspension of each test compound in 0.5% CMC-Na solution was administered orally to C3H/HeN mice at a dose of 0.10 to 10 mg/kg. One hour later, the animals received intravenously galactosamine at a dose of 800 mg/kg and LPS at a dose 5 μg/kg to raise the induction of TNF-α production. One hour later after the galactosamine- and LPS-administration, amounts of TNF-α in serum samples were measured by ELISA, and ED50 was obtained. Roflumilast and SB207499 were used for the reference compounds in this assay.

Structure (SMILES)	IC50 [2] [µM]	other results
COc1ccc(C2CNC(=O)C2)cc1OC1CCCC1 (single isomer, unassigned; (-)) [Rolipram, (−)-4-[3-(cyclopentyloxy)-4-methoxyphenyl]-2-pyrrolidinone]	–	ED50 [1]: 0.51 mg/kg
COc1ccc(Cc2n[nH]c3c2c(=O)n(-c2ccccc2)c2ncccc32)c(OC)c1 [Example No. 30, 3-(2,4-dimethoxybenzyl)-5-phenyl-1H-pyrazolo[4,3-c][1,8]naphthyridin-4 (5H)-one]	0.049	–
COc1ccc(Cc2n[nH]c3c2c(=O)n(-c2ccccc2)c2ncccc32)cc1 [Example No. 21, 3-(4-methoxybenzyl)-5-phenyl-1H-pyrazolo[4,3-c][1,8]naphthyridin-4 (5H)-one]	0.088	–
COc1ccc([C@]2(C#N)CC[C@@H](C(=O)O)CC2)cc1OC1CCCC1 [SB207499, cis-4-cyano-4-[3-(cyclopentyloxy)-4-methoxyphenyl]cyclohexane-1-carboxylic acid, reference compound]	–	ED50 [1]: > 20 mg/kg; ED50 (TNF-α production): 3.3 mg/kg
O=c1c2c(CCc3cc[n+]([O-])cc3)n[nH]c2c2cccnc2n1-c1ccccc1 [Example No. 5, 5-phenyl-3-[2-(1-oxypyridin-4-yl)ethyl]-1H-pyrazolo[4,3-c][1,8]-naphthyridin-4 (5H)-one]	0.067	melting point: 285 °C (dec.)
O=c1c2c(Cc3ccc(O)cc3)n[nH]c2c2cccnc2n1-c1ccccc1 [Example No. 41, 3-(4-hydroxybenzyl)-5-phenyl-1H-pyrazolo[4,3-c][1,8]-naphthyridin-4 (5H)-one]	0.089	melting point: 316 to 317 °C
O=c1c2c(Cc3cccs3)n[nH]c2c2cccnc2n1-c1ccccc1 [Example No. 23, 3-(2-thienylmethyl)-5-phenyl-1H-pyrazolo[4,3-c][1,8]naphthyridin-4 (5H)-one]	0.082	–
O=C(O)Cc1ccc(Cc2n[nH]c3c2c(=O)n(-c2ccccc2)c2ncccc32)cc1 [Example No. 46, 3-(4-carboxymethylbenzyl)-5-phenyl-1H-pyrazolo[4,3-c][1,8]naphthyridin-4 (5H)-one]	0.032	melting point: 297 to 300 °C
O=c1c2c(Cc3ccccc3)n[nH]c2c2cccnc2n1-c1cccc(F)c1 [Example No. 58, 3-benzyl-5-(3-fluorophenyl)-1H-pyrazolo[4,3-c][1,8]-naphthyridin-4 (5H)-one]	0.035	–
Nc1ccc(Cc2n[nH]c3c2c(=O)n(-c2ccccc2)c2ncccc32)cc1 [Example No. 43, 3-(4-aminobenzyl)-5-phenyl-1H-pyrazolo[4,3-c][1,8]-naphthyridin-4 (5H)-one]	0.086	–

The remaining compounds from weak to strong by IC50 [2], led by results:

IC50 [2] [µM]	Structure (SMILES)	other results
0.031	Nc1ccc(CCc2n[nH]c3c2c(=O)n(-c2ccccc2)c2ncccc32)cc1 [Example No. 13, 3-[2-(4-aminophenyl)ethyl]-5-phenyl-1H-pyrazolo[4,3-c][1,8]naphthyridin-4 (5H)-one]	–
0.028	N#Cc1cccc(-n2c(=O)c3c(Cc4ccccc4)n[nH]c3c3cccnc32)c1 [Example No. 53, 3-benzyl-5-(3-cyanophenyl)-1H-pyrazolo[4,3-c][1,8]-naphthyridin-4 (5H)-one]	–
0.028	CCOC(=O)Cc1ccc(Cc2n[nH]c3c2c(=O)n(-c2ccccc2)c2ncccc32)cc1 [Example No. 32, 3-(4-ethoxycarbonylmethylbenzyl)-5-phenyl-1H-pyrazolo[4,3-c][1,8]naphthyridin-4 (5H)-one]	–
0.025	O=c1c2c(CCc3ccncc3)n[nH]c2c2cccnc2n1-c1cccc([N+](=O)[O-])c1 [Example No. 6, 5-(3-nitrophenyl)-3-[2-(pyridin-4-yl)ethyl]-1H-pyrazolo[4,3-c][1,8]naphthyridin-4 (5H)-one]	melting point: 161 to 165 °C
0.023	O=c1c2c(Cc3ccccc3)n[nH]c2c2cccnc2n1-c1cccc([N+](=O)[O-])c1 [Example No. 56, 3-benzyl-5-(3-nitrophenyl)-1H-pyrazolo[4,3-c][1,8]-naphthyridin-4 (5H)-one]	–
0.021	COc1ccc(OC)c(Cc2n[nH]c3c2c(=O)n(-c2ccccc2)c2ncccc32)c1 [Example No. 27, 3-(2,5-dimethoxybenzyl)-5-phenyl-1H-pyrazolo[4,3-c][1,8]naphthyridin-4 (5H)-one]	–
0.02	O=c1c2c(Cc3ccccc3[N+](=O)[O-])n[nH]c2c2cccnc2n1-c1ccccc1 [Example No. 26, 3-(2-nitrobenzyl)-5-phenyl-1H-pyrazolo[4,3-c][1,8]naphthyridin-4 (5H)-one]	–
